Assay results published in patent publication US9539349B2, “Formulation, apparatus and method for stabilizing radiopharmaceuticals” (Siemens Medical Solutions USA, Inc., priority 2010, dated 2017).
Where two headings read alike, the source gives them in different places. Each block holds one molecule with its values, some of them ahead of it.

Key:
[1] = tested on: proximal renal tubes in kidneys; conditions: rat, in vivo
[2] = Excipient screen: protective factor (PF) for [F-18]FLT in argon sparged vials; conditions: in the absence of oxygen, in the presence of argon
[3] = tested on: proximal renal tubes in kidneys; conditions: dog, in vivo
[4] = Radiochemical purity / percent stability of aged radiopharmaceutical solutions by radio-analytical HPLC; conditions: for % stability 2.25 hr: [F-18]BMS 747158-02 12 mCi/mL, 10 vol. % EtOH:water; for RCP % 1.5 hrs post dispensing / RCP % 4 hrs post dispensing: FLT; for % stability 4.0 hr: [F-18]FLT 126.3 mCi/mL (text: 103 mCi/mL); for % stability 5.5 hr: [F-18]FLT 127 mCi/mL; for % stability 3 hr: [F-18]HX4 16.2 mCi/mL
[5] = Hydrogen peroxide concentration by peroxide test strips; type: physicochemical

predicted human dose equivalent for renal effect [1]: approximately 12.3 mg/kg
predicted human dose equivalent for renal effect, total dose [1]: 855 mg
stabilization of [F-18]FLT against radiolysis [2]: highly stabilizing
predicted human dose equivalent for renal effect [3]: approximately 15 mg/kg
predicted human dose equivalent for renal effect, total dose [3]: 1000 mg
SMILES: O=C(O)/C=C\C(=O)O [Maleic acid]

SMILES: CC(C)(C)n1ncc(OCc2ccc(COCC[18F])cc2)c(Cl)c1=O [[F-18]BMS 747158-02]
% stability 2.25 hr ([4]; Air/O2 (before sparge)): 91%
% stability 2.25 hr ([4]; Argon (reformulated after sparge)): 12%

SMILES: Cc1cn([C@H]2C[C@H]([18F])[C@@H](CO)O2)c(=O)[nH]c1=O [[F-18]FLT]
stabilization by formulation ([4]; 8 vol. % EtOH:92 vol. % sodium phosphate (21 mM, pH=4.0-7.0) containing 0.01% (g/ml) maleic acid): very efficient at stabilizing
RCP % 1.5 hrs post dispensing ([4]; Air-purged vial): 100%
RCP % 4 hrs post dispensing ([4]; Air-purged vial): 100%
RCP % 1.5 hrs post dispensing ([4]; Argon purged vial): 62.5%
RCP % 4 hrs post dispensing ([4]; Argon purged vial): 38.5%
oxygen in finished product vial headspace at which FLT stability is improved ([4]; Greer and Adelphi vials): > 10 vol. %
radiochemical purity ([4]; [F-18]FLT 63.2 mCi/mL at EOS, dose vial sparged with Ar, after 1.5 hrs): 62.5%
radiochemical purity ([4]; [F-18]FLT 63.2 mCi/mL at EOS, dose vial sparged with Ar, after 4.0 hrs): 38.57%
radiochemical integrity ([4]; [F-18]FLT 63.2 mCi/mL at EOS, headspace of oxygen (syringe and sample vial), up to 4 hrs): remained radiochemically intact
% stability 2 hr ([4]; [F-18]FLT 82 mCi/mL, 8 vol. % EtOH:phosphate, 0.01% (g/ml) maleic acid + Air headspace, rt): 100%
% stability 3.25 hr ([4]; [F-18]FLT 118.7 mCi/mL, 8 vol. % EtOH:phosphate, maleic acid + Ar headspace): 37.9%
% stability 4.0 hr ([4]; 8 vol. % EtOH:phosphate, Ar, no maleic acid): 1.5%
% stability 4.0 hr ([4]; 8 vol. % EtOH:phosphate, maleic acid (0.1 mg/mL) and Ar): 88.7%
% stability 5.5 hr ([4]; 8 vol. % EtOH:phosphate, syringe sample, O2 (no headspace), no maleic acid): 19.68%
% stability 5.5 hr ([4]; 8 vol. % EtOH:phosphate, syringe sample, maleic acid + O2 (no headspace)): 97.13%
% stability 5.5 hr ([4]; 8 vol. % EtOH:phosphate, vial, Air headspace, no maleic acid): ≥ 98%
% stability 5.5 hr ([4]; 8 vol. % EtOH:phosphate, vial, maleic acid + Air headspace (rt)): ≥ 98%
radiochemical integrity ([4]; [F-18]FLT 129.5 mCi/mL at EOS, control dose vial with headspace of oxygen): remained radiochemically intact
radiochemical integrity ([4]; [F-18]FLT 129.5 mCi/mL at EOS, syringe with headspace of oxygen (20.95 vol. %)): remained radiochemically intact
radiochemical purity ([4]; [F-18]FLT 129.5 mCi/mL at EOS, syringe without headspace of oxygen, after 2.6 hrs): 66.7%
radiochemical purity ([4]; [F-18]FLT 129.5 mCi/mL at EOS, syringe without headspace of oxygen, after 3.8 hrs): 32.7%
% stability 3.5 hr ([4]; [F-18]FLT 197.1 mCi/mL, 8 vol. % EtOH:phosphate, dose vial, air/O2 only): 82.6%
stability (FIG. 2) ([4]; in the presence of argon without maleic acid): decomposes
stability (FIG. 1) ([4]; in the presence of argon without oxygen): decomposes
stability (FIG. 2) ([4]; in the presence of maleic acid in argon): stabilized
stability (FIG. 1) ([4]; in the presence of oxygen): stabilized
stability (FIG. 4) ([4]; in the presence of oxygen and maleic acid): further stabilized
stability (FIG. 4) ([4]; in the presence of oxygen, once the oxygen is consumed): decomposes
period of stability ([4]; oxygen and maleic acid formulation, in some instances): about 18 hours
strength up to which samples did not contain radiolyzed products ([4]; samples spiked with O2): up to 197 mCi/mL
hydrogen peroxide concentration ([5]; FLT sample 126.3 mCi/mL, containing maleic acid (argon)): 0 ppm
hydrogen peroxide concentration ([5]; FLT sample 126.3 mCi/mL, headspace of argon): 0 ppm
hydrogen peroxide concentration ([5]; FLT sample 127 mCi/mL, headspace of oxygen): 5 ppm
hydrogen peroxide concentration ([5]; FLT sample 127 mCi/mL, headspace of oxygen and maleic acid): 0.5-2.0 ppm

SMILES: O=[N+]([O-])c1nccn1Cc1cn(C(CO)C[18F])nn1 (centres unmarked) [[F-18]HX4]
% stability 3 hr ([4]; 8 vol. % EtOH:phosphate (text: 10 vol. % EtOH:water), maleic acid + Argon): 8.66%
% stability 3 hr ([4]; 8 vol. % EtOH:phosphate (text: 10 vol. % EtOH:water), maleic acid + O2): 98.9%
% stability 3 hr ([4]; 8 vol. % EtOH:phosphate, Air (O2)): 94.06%
% stability 3 hr ([4]; 8 vol. % EtOH:phosphate, Argon): 85.6%
radiochemical integrity ([4]; [F-18]HX4 in 10 vol. % EtOH:water, headspace of oxygen, up to 4 hrs): remained radiochemically intact
radiochemical purity ([4]; [F-18]HX4 in 10 vol. % EtOH:water, sparged with Ar, after 1 hrs): 0.28%
radiochemical purity ([4]; [F-18]HX4 in 10 vol. % EtOH:water, sparged with Ar, after 4.0 hrs): 0%

SMILES: CC(C)[C@@H](C(=O)N[C@@H](Cc1ccc(OCC[18F])cc1)C(=O)O)n1cc(COc2ccc3nc(S(N)(=O)=O)sc3c2)nn1 [[F-18]VM4-037]
radiolytic stability ([4]; oxygen introduced into the sample vials): not undergo radiolysis
radiolytic stability ([4]; stored under an atmosphere of He): susceptible to radiolytical decomposition
